Data from ChEMBL document CHEMBL5620427, “Recent advances in Fragment-based strategies against tuberculosis” (Eur J Med Chem, 2023).

Test system: Mycobacterium tuberculosis variant bovis
Assay: Antibacterial activity against Mycobacterium bovis BCG ATCC 35734 assessed as bacterial growth inhibition measured after 3 weeks by resazurin dye based assay
Format: functional
Conditions: BCG ATCC 35734, 504 h

| Structure (SMILES) | MIC99 [µM] |
| --- | --- |
| CCOC(=O)c1cc(Cl)c(O)c(Cl)c1 | < 53 |
| NS(=O)(=O)c1cc(Cl)cc(Cl)c1 | < 56 |
